# Counter-ions that a name gives are not always drawn.
# Columns and labels:
# hNav1.7 [1] = target: T1, hNav1.7 (Homo sapiens (Human), UniProt Q15858); experiment: Tritiated compound binding to membranes from cells heterologously expressing hNav1.7 and the β1 subunit (Nav1.7 LBA); details: competitive binding vs [3H]compound, membranes with hNav1.7 and β1 subunit; read-out: Nav1.7 LBA EVO IC50
# In short: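 Membranes from cells expressing hNav1.7 with β1 were incubated at room temperature with a tritiated competitive Nav1.7 inhibitor plus test compound in 100 mM NaCl, 20 mM Tris pH 7.4, 0.01% BSA; nonspecific binding was set with 1 μM unlabeled compound. Incubation was 18 h with […] radioligand, or 3 h with […]. Bound ligand was filtered and counted, and IC50 came from a 4-parameter fit.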
# Target sequence in this assay (Q15858 whole entry, looked up): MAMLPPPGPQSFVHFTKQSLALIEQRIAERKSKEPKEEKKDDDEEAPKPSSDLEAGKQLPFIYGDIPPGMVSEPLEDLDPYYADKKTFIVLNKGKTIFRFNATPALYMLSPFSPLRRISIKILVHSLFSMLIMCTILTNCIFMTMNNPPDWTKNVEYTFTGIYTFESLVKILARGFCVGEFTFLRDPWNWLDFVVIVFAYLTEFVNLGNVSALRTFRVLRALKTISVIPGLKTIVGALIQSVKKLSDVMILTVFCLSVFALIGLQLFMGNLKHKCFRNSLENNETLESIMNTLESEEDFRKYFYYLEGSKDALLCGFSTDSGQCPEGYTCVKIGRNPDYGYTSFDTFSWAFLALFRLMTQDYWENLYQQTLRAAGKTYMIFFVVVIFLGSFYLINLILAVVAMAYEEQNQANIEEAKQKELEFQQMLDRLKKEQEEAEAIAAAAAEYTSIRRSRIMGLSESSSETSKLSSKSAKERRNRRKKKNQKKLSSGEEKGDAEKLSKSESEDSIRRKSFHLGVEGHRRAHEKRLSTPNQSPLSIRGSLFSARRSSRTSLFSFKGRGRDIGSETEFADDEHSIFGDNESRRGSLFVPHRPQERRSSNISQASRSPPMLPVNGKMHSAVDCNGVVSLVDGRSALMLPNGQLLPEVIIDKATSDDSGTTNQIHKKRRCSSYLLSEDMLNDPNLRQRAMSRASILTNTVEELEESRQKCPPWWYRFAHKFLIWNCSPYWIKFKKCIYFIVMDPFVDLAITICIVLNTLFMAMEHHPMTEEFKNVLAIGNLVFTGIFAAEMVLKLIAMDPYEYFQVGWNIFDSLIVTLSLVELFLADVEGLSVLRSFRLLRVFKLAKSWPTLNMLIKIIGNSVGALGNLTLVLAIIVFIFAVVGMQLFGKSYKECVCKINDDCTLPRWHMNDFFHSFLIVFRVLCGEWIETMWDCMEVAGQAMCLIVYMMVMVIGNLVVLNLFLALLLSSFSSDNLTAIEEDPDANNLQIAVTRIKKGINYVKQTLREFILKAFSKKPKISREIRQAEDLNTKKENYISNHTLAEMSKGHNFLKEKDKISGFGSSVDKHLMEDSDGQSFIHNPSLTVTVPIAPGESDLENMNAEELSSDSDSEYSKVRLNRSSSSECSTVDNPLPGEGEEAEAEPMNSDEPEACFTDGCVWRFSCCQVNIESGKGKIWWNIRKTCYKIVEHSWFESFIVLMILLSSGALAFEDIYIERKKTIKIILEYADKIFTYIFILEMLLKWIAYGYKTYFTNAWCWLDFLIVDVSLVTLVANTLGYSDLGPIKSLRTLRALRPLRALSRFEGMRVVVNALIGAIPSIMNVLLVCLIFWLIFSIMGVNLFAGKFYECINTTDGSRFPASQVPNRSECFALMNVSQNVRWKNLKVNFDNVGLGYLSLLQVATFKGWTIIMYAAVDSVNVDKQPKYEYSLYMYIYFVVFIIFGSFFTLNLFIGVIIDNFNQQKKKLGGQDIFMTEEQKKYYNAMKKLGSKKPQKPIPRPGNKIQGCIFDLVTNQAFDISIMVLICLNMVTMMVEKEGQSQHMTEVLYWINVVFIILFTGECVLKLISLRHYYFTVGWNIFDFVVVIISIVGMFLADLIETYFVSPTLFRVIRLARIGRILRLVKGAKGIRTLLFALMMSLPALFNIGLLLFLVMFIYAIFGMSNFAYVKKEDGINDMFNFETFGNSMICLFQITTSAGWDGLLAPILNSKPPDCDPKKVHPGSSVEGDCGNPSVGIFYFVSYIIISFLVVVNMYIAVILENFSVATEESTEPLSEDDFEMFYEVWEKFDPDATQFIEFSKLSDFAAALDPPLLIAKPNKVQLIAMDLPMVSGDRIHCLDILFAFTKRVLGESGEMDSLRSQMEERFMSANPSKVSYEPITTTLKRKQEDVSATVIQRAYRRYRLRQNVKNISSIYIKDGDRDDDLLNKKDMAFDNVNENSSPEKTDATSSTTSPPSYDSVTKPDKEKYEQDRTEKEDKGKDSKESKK
# Target sequence in this assay (Q07699 whole entry partner, looked up): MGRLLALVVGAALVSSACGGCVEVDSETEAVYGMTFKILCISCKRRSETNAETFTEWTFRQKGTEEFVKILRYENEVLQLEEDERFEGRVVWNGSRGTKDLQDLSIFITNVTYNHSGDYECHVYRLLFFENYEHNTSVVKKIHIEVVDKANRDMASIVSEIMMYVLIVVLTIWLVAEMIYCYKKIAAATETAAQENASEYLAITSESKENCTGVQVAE
# hNav1.7 [2] = target: T1, hNav1.7; experiment: Electrophysiological assay (EP), voltage clamp on Syncropatch 384PE, CHO cells stably expressing Nav1.7; type: cell-based; details: holding potential −50 mV, 7.5 min compound incubation, read-out: EP_SP hNav1.7 EVO IC50
# In short: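 Whole-cell automated patch clamp was run on CHO cells stably expressing human Nav1.7 cDNA, with internal solution CsCl/EGTA pH 7.2, external solution 80 mM NaCl pH 7.4, and 0.1% Pluronic F-127. From a −50 mV holding potential: −10 mV for 10 ms, −150 mV for 20 ms, then −10 mV for 10 ms, where current was measured. Inhibition was taken after 7.5 min compound incubation, with TTX added for full block.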
# Target sequence in this assay (Q15858 other isoform, or with tags, fused parts or gaps): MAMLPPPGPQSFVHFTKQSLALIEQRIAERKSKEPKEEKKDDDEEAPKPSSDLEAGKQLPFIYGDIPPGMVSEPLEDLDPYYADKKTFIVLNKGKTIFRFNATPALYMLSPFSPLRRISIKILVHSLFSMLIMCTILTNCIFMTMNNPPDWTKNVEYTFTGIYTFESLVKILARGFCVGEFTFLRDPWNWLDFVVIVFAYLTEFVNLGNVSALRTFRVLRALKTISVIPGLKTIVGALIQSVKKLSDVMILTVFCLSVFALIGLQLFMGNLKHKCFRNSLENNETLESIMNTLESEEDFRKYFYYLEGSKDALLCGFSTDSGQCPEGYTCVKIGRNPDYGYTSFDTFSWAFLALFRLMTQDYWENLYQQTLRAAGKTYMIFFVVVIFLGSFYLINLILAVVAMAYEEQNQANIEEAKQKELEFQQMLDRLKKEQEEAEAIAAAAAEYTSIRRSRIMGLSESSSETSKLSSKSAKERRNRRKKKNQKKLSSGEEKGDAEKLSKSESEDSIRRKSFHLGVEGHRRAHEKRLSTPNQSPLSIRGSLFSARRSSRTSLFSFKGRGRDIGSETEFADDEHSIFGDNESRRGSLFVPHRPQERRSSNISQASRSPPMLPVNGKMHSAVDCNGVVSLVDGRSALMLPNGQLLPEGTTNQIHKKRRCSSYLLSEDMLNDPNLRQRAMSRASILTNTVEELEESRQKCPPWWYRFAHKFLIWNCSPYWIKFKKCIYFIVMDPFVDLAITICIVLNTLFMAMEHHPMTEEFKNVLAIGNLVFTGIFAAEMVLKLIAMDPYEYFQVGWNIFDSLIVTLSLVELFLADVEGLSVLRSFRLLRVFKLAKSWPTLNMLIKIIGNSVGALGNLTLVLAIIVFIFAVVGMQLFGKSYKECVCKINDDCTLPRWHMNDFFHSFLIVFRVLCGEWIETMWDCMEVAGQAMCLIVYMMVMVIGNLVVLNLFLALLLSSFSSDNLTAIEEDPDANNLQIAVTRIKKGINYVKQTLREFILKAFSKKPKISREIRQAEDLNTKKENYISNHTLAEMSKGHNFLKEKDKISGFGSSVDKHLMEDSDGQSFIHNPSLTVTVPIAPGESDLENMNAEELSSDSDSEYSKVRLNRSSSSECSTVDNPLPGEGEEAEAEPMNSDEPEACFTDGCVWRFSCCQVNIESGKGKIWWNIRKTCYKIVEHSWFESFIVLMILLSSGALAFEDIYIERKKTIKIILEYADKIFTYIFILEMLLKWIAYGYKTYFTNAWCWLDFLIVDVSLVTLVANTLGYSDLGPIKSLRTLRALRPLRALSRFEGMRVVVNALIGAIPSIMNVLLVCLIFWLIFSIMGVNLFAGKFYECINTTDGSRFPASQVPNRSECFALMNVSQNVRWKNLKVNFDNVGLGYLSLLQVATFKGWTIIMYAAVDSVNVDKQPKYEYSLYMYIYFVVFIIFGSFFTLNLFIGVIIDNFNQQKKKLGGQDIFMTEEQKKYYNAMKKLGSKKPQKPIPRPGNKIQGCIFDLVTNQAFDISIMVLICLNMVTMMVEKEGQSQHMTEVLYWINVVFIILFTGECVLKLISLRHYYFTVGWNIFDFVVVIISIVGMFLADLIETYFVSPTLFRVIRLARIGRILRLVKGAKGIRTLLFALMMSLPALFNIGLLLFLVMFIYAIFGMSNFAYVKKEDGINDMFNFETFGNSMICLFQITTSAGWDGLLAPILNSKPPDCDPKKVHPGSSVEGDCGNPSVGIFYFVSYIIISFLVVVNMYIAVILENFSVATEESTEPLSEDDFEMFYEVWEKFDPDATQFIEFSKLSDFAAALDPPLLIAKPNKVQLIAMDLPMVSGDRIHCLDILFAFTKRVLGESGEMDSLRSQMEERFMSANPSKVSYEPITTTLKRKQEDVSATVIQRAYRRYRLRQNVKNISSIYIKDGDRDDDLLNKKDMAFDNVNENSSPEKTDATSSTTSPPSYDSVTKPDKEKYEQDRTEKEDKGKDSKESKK
Compound,IC50 (hNav1.7 [1]) [nM],IC50 (hNav1.7 [2]) [nM]
"CN(C)[C@H]1C[C@@H](c2cccc(OC(F)F)c2)CC[C@@H]1Nc1cc(F)c(S(=O)(=O)Nc2ccncn2)cc1Cl [Example 14, 5-Chloro-4-[[(1S,2S,4S)-4-[3-(difluoromethoxy)phenyl]-2-(dimethylamino)-cyclohexyl]amino]-2-fluoro-N-pyrimidin-4-yl-benzenesulfonamide]",4.64,1.63
"CC(C)[C@H](N)C(=O)N(C)[C@H]1C[C@@H](c2cccc(C(F)(F)F)c2)CC[C@@H]1Nc1cc(F)c(S(=O)(=O)Nc2ccncn2)cc1Cl [Example 31, (S)-2-amino-N-((1S,2S,5S)-2-((2-chloro-5-fluoro-4-(N-(pyrimidin-4-yl)sulfamoyl)-phenyl)amino)-5-(3-(trifluoromethyl)phenyl)cyclohexyl)-N,3-dimethylbutanamide formate]",2.78,0.462
"CN(C)CC(=O)N[C@H]1C[C@@H](c2cccc(C(F)(F)F)c2)CC[C@@H]1Nc1cc(F)c(S(=O)(=O)Nc2ccncn2)cc1Cl [Example 28, N-((1S,2S,5S)-2-((2-chloro-5-fluoro-4-(N-(pyrimidin-4-yl)sulfamoyl)phenyl)amino)-5-(3-(trifluoromethyl)phenyl)cyclohexyl)-2-(dimethylamino)acetamide]",84,36.3
"CN(C)[C@H]1C[C@@H](c2cc(Cl)cc(C(F)(F)F)c2)CC[C@@H]1Nc1cc(F)c(S(=O)(=O)Nc2ccncn2)cc1Cl [Example 24, 5-chloro-4-(((1S,2S,4S)-4-(3-chloro-5-(trifluoromethyl)phenyl)-2-(dimethylamino)cyclohexyl)-amino)-2-fluoro-N-(pyrimidin-4-yl)benzenesulfonamide]",0.583,0.383
"CN(C)[C@H]1C[C@@H](Cc2cccc(C(F)(F)F)c2)CC[C@@H]1Nc1cc(F)c(S(=O)(=O)Nc2ccncn2)cc1Cl [Example 8, 5-chloro-4-(((1S,2S,4R)-2-(dimethylamino)-4-(3-(trifluoromethyl)benzyl)cyclohexyl)amino)-2-fluoro-N-(pyrimidin-4-yl)benzenesulfonamide]",6.45,0.991
"CN(C)[C@H]1C[C@@H](c2cccc(C(F)(F)F)c2)CC[C@@H]1n1ccc2cc(S(=O)(=O)Nc3ccncn3)c(F)cc21 [Example 10, 1-((1S,2S,4S)-2-(Dimethylamino)-4-(3-(trifluoromethyl)phenyl)cyclohexyl)-6-fluoro-N-(pyrimidin-4-yl)-1H-indole-5-sulfonamide formate]",25.8,2.74
CN(C)[C@H]1C[C@@H](c2ccc(Cl)c(C(F)(F)F)c2)CC[C@@H]1Nc1cc(F)c(S(=O)(=O)Nc2ccncn2)cc1Cl [Example 7],0.52,0.327
"CN(C)[C@H]1C[C@@H](c2cccc(C(F)(F)F)c2)CC[C@@H]1N1C(=O)COc2cc(S(=O)(=O)Nc3ccncn3)c(F)cc21 [Example 1, 4-((1S,2S,4S)-2-(Dimethylamino)-4-(3-(trifluoromethyl)phenyl)cyclohexyl)-6-fluoro-3-oxo-N-(pyrimidin-4-yl)-3,4-dihydro-2H-benzo[b][1,4]oxazine-7-sulfonamide formate]",18.8,3.13
"CC(C)[C@H](N)C(=O)N[C@H]1C[C@@H](c2cccc(C(F)(F)F)c2)CC[C@@H]1Nc1cc(F)c(S(=O)(=O)Nc2ccncn2)cc1Cl [Example 30, (S)-2-Amino-N-((1S,2S,5S)-2-((2-chloro-5-fluoro-4-(N-(pyrimidin-4-yl)sulfamoyl)-phenyl)amino)-5-(3-(trifluoromethyl)phenyl)cyclohexyl)-3-methylbutanamide formate]",37.5,28.4
"CN(C)[C@H]1C[C@@H](c2cc(F)cc(Cl)c2)CC[C@@H]1Nc1cc(F)c(S(=O)(=O)Nc2ccncn2)cc1Cl [Example 25, 5-chloro-4-(((1S,2S,4S)-4-(3-chloro-5-fluorophenyl)-2-(dimethylamino)cyclohexyl)amino)-2-fluoro-N-(pyrimidin-4-yl)benzenesulfonamide]",3.02,2.31
"CN(C)[C@H]1C[C@@H](c2ccc(Cl)c(Cl)c2)CC[C@@H]1Nc1cc(F)c(S(=O)(=O)Nc2ccncn2)cc1Cl [Example 4, 5-Chloro-4-(((1S,2S,4S)-4-(3,4-dichlorophenyl)-2-(dimethylamino)cyclohexyl)amino)-2-fluoro-N-(pyrimidin-4-yl)benzenesulfonamide]",1.2,0.305
"CN(C)[C@H]1C[C@@H](c2cccc(CC(F)(F)F)c2)CC[C@@H]1Nc1cc(F)c(S(=O)(=O)Nc2ccncn2)cc1Cl [Example 27, 5-chloro-4-(((1S,2S,4S)-2-(dimethylamino)-4-(3-(2,2,2-trifluoroethyl)phenyl)cyclohexyl)-amino)-2-fluoro-N-(pyrimidin-4-yl)benzenesulfonamide]",1.22,1.33
"CN(C)[C@H]1C[C@@H](c2cc(C(F)(F)F)cc(C(F)(F)F)c2)CC[C@@H]1Nc1cc(F)c(S(=O)(=O)Nc2ccncn2)cc1Cl [Example 12, 4-(((1S,2S,4S)-4-(3,5-bis(trifluoromethyl)phenyl)-2-(dimethylamino)cyclohexyl)amino)-5-chloro-2-fluoro-N-(pyrimidin-4-yl)benzenesulfonamide]",0.473,0.531
"4-(((1S,2S,4S)-2-(azetidin-3-yl(methyl)amino)-4-(3-(trifluoromethyl)phenyl)cyclohexyl)oxy)-5-chloro-2-fluoro-N-(pyrimidin-4-yl)benzenesulfonamide [Example 80]",0.39,0.317

# The next lines start with the values.
IC50 (hNav1.7 [1]) [nM],IC50 (hNav1.7 [2]) [nM],Compound
3.88,1.21,"O=S(=O)(Nc1ccncn1)c1cc(F)c(N[C@H]2CC[C@H](c3cc(C(F)(F)F)ccc3F)C[C@@H]2N2CCCC2)cc1F [Example 50, 2,5-difluoro-4-(((1S,2S,4S)-4-(2-fluoro-5-(trifluoromethyl)phenyl)-2-(pyrrolidin-1-yl)cyclohexyl)amino)-N-(pyrimidin-4-yl)benzenesulfonamide]"
170,17,"CN(C)[C@H]1C[C@@H](c2cccc(C(F)(F)F)c2)CC[C@@H]1Nc1c(F)cc(S(=O)(=O)Nc2ccncn2)cc1F [Example 88, 4-(((1S,2S,4S)-2-(Dimethylamino)-4-(3-(trifluoromethyl)phenyl)cyclohexyl)amino)-3,5-difluoro-N-(pyrimidin-4-yl)benzenesulfonamide]"
1.6,0.745,"O=S(=O)(Nc1ccncn1)c1cc(Cl)c(O[C@H]2CC[C@H](c3cccc(C(F)(F)F)c3)C[C@@H]2N2CCCC2)cc1F [Example 60, 5-chloro-2-fluoro-N-(pyrimidin-4-yl)-4-(((1S,2S,4S)-2-(pyrrolidin-1-yl)-4-(3-(trifluoromethyl)-phenyl)cyclohexyl)oxy)benzenesulfonamide formate]"
169,7.04,"CN(C)[C@H]1CN(c2cc(C(F)(F)F)ccn2)CC[C@@H]1Nc1cc(F)c(S(=O)(=O)Nc2ccncn2)cc1Cl [Example 71, 5-Chloro-4-(((3S,4S)-3-(dimethylamino)-1-(4-(trifluoromethyl)pyridin-2-yl)piperidin-4-yl)amino)-2-fluoro-N-(pyrimidin-4-yl)benzenesulfonamide formate]"
78.8,8.61,"CN(C)[C@H]1C[C@@H](c2ccnc(C(F)(F)F)c2)CC[C@@H]1Oc1cc(F)c(S(=O)(=O)Nc2ccncn2)cc1Cl [Example 76, 5-chloro-4-(((1S,2S,4S)-2-(dimethylamino)-4-(2-(trifluoromethyl)pyridin-4-yl)cyclohexyl)oxy)-2-fluoro-N-(pyrimidin-4-yl)benzenesulfonamide formate]"
1.54,0.322,"O=S(=O)(Nc1ccncn1)c1cc(F)c(N[C@H]2CC[C@H](c3cccc(OC(F)(F)F)c3)C[C@@H]2N2CCCC2)cc1F [Example 61, 2,5-difluoro-N-(pyrimidin-4-yl)-4-(((1S,2S,4S)-2-(pyrrolidin-1-yl)-4-(3-(trifluoromethoxy)-phenyl)cyclohexyl)amino)benzenesulfonamide formate]"
223,18,"CN(C)[C@H]1C[C@@H](c2cccc(C(F)(F)F)c2)CC[C@@H]1Oc1ccc(S(=O)(=O)Nc2ccncn2)cc1F [Example 79, 4-(((1S,2S,4S)-2-(Dimethylamino)-4-(3-(trifluoromethyl)phenyl)cyclohexyl)oxy)-3-fluoro-N-(pyrimidin-4-yl)benzenesulfonamide]"
12.2,1.37,"CN(C)[C@@H]1C[C@H](c2ccccc2C(F)(F)F)CC[C@H]1Nc1cc(F)c(S(=O)(=O)Nc2ccncn2)cc1Cl (single isomer, unassigned) [Example 78]"
38.6,6.36,CN(C)[C@H]1C[C@@H](c2cccc(C3CCOCC3)c2)CC[C@@H]1Oc1cc(F)c(S(=O)(=O)Nc2ccncn2)cc1Cl [Example 83]
0.657,0.141,"CN(C1CNC1)[C@H]1C[C@@H](c2cccc(C(F)(F)F)c2)CC[C@@H]1Nc1cc(F)c(S(=O)(=O)Nc2ccncn2)cc1Cl [Example 42, 4-(((1S,2S,4S)-2-(azetidin-3-yl(methyl)amino)-4-(3-(trifluoromethyl)phenyl)cyclohexyl)-amino)-5-chloro-2-fluoro-N-(pyrimidin-4-yl)benzenesulfonamide]"

# — US11028075B2, “Therapeutic compounds and methods of use thereof” (GENENTECH, INC., priority 2018, dated 2021)
